Here are results for three molecules from ChEMBL document CHEMBL4420075, “Seriniquinones, melanoma-specific anticancer agents” (2016).

In the assay the test system is HCT-116. Description: Cytotoxicity in human HCT116 cells by MTT assay. Format: functional, cell-based.

For `O=c1c2ccc(O)cc2c(=O)c2c1sc1c(=O)c3ccc(O)cc3c(=O)c12`, half-maximal inhibition (IC50) required 1600 nM.

As to `O=c1c2ccccc2c(=O)c2c1sc1c(=O)c3cc(O)ccc3c(=O)c12`, the IC50 came out at 1300 nM.

As for `O=C(Nc1ccc2c(=O)c3c(sc4c(=O)c5cc(NC(=O)C(F)(F)F)ccc5c(=O)c43)c(=O)c2c1)C(F)(F)F`, the concentration for half-maximal inhibition (IC50) amounted to 580 nM.
